In experiment [1] the target is T1, Hepatocyte nuclear factor 4-alpha (Homo sapiens, UniProt P41235).
T1 sequence (P41235 whole entry): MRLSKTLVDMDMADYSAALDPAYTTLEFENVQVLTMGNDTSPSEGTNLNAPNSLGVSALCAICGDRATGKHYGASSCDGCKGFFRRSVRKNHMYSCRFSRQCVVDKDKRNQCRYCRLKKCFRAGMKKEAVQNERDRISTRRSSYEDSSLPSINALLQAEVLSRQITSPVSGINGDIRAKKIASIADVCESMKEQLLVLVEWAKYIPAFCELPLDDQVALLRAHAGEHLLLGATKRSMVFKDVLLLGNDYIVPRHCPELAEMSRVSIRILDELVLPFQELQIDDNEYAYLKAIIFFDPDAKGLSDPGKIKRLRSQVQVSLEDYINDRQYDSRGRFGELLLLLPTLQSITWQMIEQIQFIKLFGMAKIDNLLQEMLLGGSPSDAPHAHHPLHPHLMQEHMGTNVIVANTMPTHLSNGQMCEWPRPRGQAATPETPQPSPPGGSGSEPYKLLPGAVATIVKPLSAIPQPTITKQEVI
Kind of experiment: Displacement of [3H]methyl4-[5,6,7,8-tetrahydro-5,5,8,8-tetramethyl-3-ethyloxy-2-naphthalenyl]benzoyl benzoate from HNF4alpha (unknown origin) by radioligand binding assay. A general note: Displacement assays read how much labelled ligand stays bound in the presence of the test substance.

Experiment [2] concerns the target T2, Retinoic acid receptor RXR-alpha (Homo sapiens, UniProt P19793).
T2 sequence (P19793 whole entry): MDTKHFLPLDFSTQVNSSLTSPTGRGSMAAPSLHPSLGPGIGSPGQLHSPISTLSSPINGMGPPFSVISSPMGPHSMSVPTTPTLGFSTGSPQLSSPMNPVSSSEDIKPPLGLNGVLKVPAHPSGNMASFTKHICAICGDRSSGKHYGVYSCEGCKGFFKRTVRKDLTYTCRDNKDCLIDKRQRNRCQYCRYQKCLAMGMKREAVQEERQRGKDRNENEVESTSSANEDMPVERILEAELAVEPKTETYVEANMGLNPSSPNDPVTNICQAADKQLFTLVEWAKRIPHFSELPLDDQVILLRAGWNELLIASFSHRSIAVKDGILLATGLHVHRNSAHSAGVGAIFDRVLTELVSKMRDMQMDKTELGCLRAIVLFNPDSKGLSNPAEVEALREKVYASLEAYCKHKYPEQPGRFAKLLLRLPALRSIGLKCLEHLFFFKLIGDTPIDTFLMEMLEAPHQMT
Kind of experiment: Displacement of [3H]9-cis-retinoic acid from RXRalpha (unknown origin) by radioligand binding assay.

The target of experiment [3] is T3, Hepatocyte nuclear factor 4-alpha (Rattus norvegicus) (UniProt P22449).
T3 sequence (whole entry): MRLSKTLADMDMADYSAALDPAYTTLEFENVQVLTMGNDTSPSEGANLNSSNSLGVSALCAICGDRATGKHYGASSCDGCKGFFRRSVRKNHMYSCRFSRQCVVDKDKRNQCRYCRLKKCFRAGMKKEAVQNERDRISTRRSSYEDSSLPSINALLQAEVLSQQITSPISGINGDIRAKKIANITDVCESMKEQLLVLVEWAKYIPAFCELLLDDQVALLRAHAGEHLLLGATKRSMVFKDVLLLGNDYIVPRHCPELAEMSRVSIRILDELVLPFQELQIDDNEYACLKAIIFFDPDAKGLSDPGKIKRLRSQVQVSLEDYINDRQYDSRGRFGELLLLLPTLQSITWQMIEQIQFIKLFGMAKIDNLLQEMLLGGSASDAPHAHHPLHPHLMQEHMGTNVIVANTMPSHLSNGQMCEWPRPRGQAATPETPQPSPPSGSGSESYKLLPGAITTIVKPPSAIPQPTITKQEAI
Kind of experiment: Antagonist activity against rat HNF4alpha1 expressed in African green monkey CV1 cells assessed as reduction in endogenous agoinst-induced luciferase expression incubated for 24 hrs by firefly luciferase reporter gene assay relative to control. The experiment is classed as functional, cell-based. The conditions noted are these: CV-1. For orientation: In a reporter assay the amount or activity of a reporter protein is the signal.

Experiment [4] addresses T4, Hepatocyte nuclear factor 4-alpha (Rattus norvegicus, UniProt P22449).
T4 sequence (P22449 whole entry): T3 sequence (whole entry)
Kind of experiment: Antagonist activity against rat HNF4alpha1 expressed in African green monkey CV1 cells assessed as reduction in endogenous agoinst-induced luciferase expression incubated for 24 hrs by firefly luciferase reporter gene assay. The experiment is classed as functional, cell-based, CV-1.

Experiment [5] has as its target T3, Hepatocyte nuclear factor 4-alpha (Rattus norvegicus). The experiment can be described thus: Agonist activity at rat HNF4alpha1 expressed in African green monkey CV1 cells incubated for 24 hrs by firefly luciferase reporter gene assay relative to LG0100695. The conditions noted are these: CV-1. The experiment is classed as functional, cell-based.
Experiment [6] addresses T4, Hepatocyte nuclear factor 4-alpha. The experiment can be described thus: Agonist activity at rat HNF4alpha1 expressed in African green monkey CV1 cells incubated for 24 hrs by firefly luciferase reporter gene assay. The experiment is classed as functional, cell-based, CV-1.

Structures are written as SMILES.

For `Cc1ccc(C)c(N/N=C(\c2ccc(C(=O)O)cc2)c2cc3c(cc2C)C(C)(C)CCC3(C)C)c1`, the inhibition constant (Ki) was 1010 nM in experiment [1] and > 30 µM in experiment [2]. Moreover, the Efficacy in experiment [3] was determined as 103%. Also, in experiment [4], the IC50 was found to be 19 nM.

Take `Cc1ccc(S(=O)(=O)Nc2c(C)c(Cc3ccc(C(=O)O)cc3)cc3c2C(C)(C)CCC3(C)C)cc1`: the inhibition constant (Ki) in experiment [1] is 5210 nM; in experiment [2] it was > 30 µM. In addition, the Efficacy in experiment [3] came out at 121%. Further, the IC50 in experiment [4] is 22 nM.

`CCOc1cc2c(cc1C(=O)c1ccc(C(=O)C(=O)O)cc1)C(C)(C)CCC2(C)C`: the values for the inhibition constant Ki in experiment [1] and in experiment [2] were 364 nM and > 10 µM, respectively. Further, the Efficacy in experiment [5] is 95%. Further, in experiment [6], a half-maximal effect (EC50) was put at 1140 nM.

With `CC1(C)CCC(C)(C)c2cc(C(=O)c3ccc(C(=O)O)cc3)c(OCC(F)(F)F)cc21`, the inhibition constant (Ki) in experiment [1] was found to be 96 nM; in experiment [2], 1.5 µM. The molecule also had an Efficacy in experiment [5] of 33%. In addition, the EC50 in experiment [6] was 2190 nM.

Take `Cc1cc2c(cc1C(NCc1cccc(F)c1)c1ccc(C(=O)O)cc1)C(C)(C)CCC2(C)C` (stereo unspecified): the Ki in experiment [1] was 1400 nM; in experiment [2] it was 6.5 µM.

Take `CCOc1cc2c(cc1/C(=N/OCc1cccc(F)c1F)c1ccc(C(=O)O)cc1)C(C)(C)CCC2(C)C`: the results for the inhibitory constant (Ki) in experiment [1] and in experiment [2] were 966 nM and > 30 µM, respectively. Besides, the Efficacy in experiment [3] amounted to 118%. In addition, in experiment [4], the IC50 was 35 nM.

Take `Cc1c(C(=O)c2ccc(C(=O)O)cc2)cc2c(c1[N+](=O)[O-])C(C)(C)CCC2(C)C`: the Ki in experiment [1] was 165 nM; in experiment [2], > 5 µM. Also, in experiment [5], the Efficacy amounted to 43%. Further, the EC50 in experiment [6] is 2230 nM.

As for `CCOc1cc2c(cc1/C(=N/Nc1cc(F)ccc1F)c1ccc(C(=O)O)cc1)C(C)(C)CCC2(C)C`, the inhibition constant (Ki) in experiment [1] was 215 nM; in experiment [2], 3 µM. Also, the Efficacy in experiment [3] stood at 110%. Further, the IC50 in experiment [4] was 1 nM.

For the molecule `CCCCOC(c1ccc(C(=O)O)cc1)c1cc2c(cc1OCC)C(C)(C)CCC2(C)C` (stereo unspecified), the Ki in experiment [1] worked out at 339 nM; in experiment [2] it was 2.7 µM. For the same molecule, the Efficacy in experiment [3] came out at 108%. Besides, the IC50 in experiment [4] was 4 nM.

With `CC1(C)CCC(C)(C)c2c1cc(C(=O)c1ccc(C(=O)O)cc1)c(OCC(F)F)c2[N+](=O)[O-]`, the Ki was 163 nM in experiment [1] and > 10 µM in experiment [2]. Besides, in experiment [5], the Efficacy is 57%. In addition, in experiment [6], the concentration giving a half-maximal response (EC50) was determined as 594 nM.

As to `CCCCCCO/N=C(\c1ccc(C(=O)O)cc1)c1cc2c(cc1OCC)C(C)(C)CCC2(C)C`, the Ki worked out at 322 nM in experiment [1] and 1.9 µM in experiment [2]. Besides, the Efficacy in experiment [3] turned out to be 120%. Besides, the IC50 in experiment [4] is 1 nM.

Regarding `Cc1cc2c(c(O)c1C(=O)c1ccc(C(=O)O)cc1)C(C)(C)CCC2(C)C`, the Ki is 710 nM in experiment [1] and > 30 µM in experiment [2]. Further, the Efficacy in experiment [5] stood at 103%. The molecule also had an EC50 in experiment [6] of 2640 nM.

Regarding `CCOc1cc2c(cc1C(=O)c1ccc(C(=O)O)cc1)C(C)(C)CCO2`, the Ki in experiment [1] turned out to be 721 nM; in experiment [2], 3 µM. Besides, the Efficacy in experiment [5] was 68%. Further, the EC50 in experiment [6] came out at 2240 nM.

As for `CC1(C)CCC(C)(C)c2cc(/C(=N\Nc3ccccc3)c3ccc(C(=O)O)cc3)ccc21`, the Ki in experiment [1] is 514 nM; in experiment [2] it was > 10 µM. The Efficacy in experiment [3] turned out to be 100%. Further, the half-inhibitory concentration (IC50) in experiment [4] turned out to be 103 nM.

Take `CCOc1cc2c(cc1/C(=N/OCCC(C)C)c1ccc(C(=O)O)cc1)C(C)(C)CCC2(C)C`: the inhibition constant (Ki) in experiment [1] turned out to be 244 nM; in experiment [2] it was 4.6 µM. Further, the Efficacy in experiment [3] came to 119%. Further, the IC50 in experiment [4] was 3 nM.

Regarding `Cc1cc2c(cc1C(OCc1ccc(SC(F)(F)F)cc1)c1ccc(C(=O)O)cc1)C(C)(C)CCC2(C)C` (stereo unspecified), the Ki in experiment [1] is 1190 nM; in experiment [2], 3 µM.

Regarding `Cc1cc2c(cc1C(OCc1ccccc1F)c1ccc(C(=O)O)cc1)C(C)(C)CCC2(C)C` (stereo unspecified), the inhibition constant Ki stood at 580 nM in experiment [1] and 5.2 µM in experiment [2]. The Efficacy in experiment [3] was determined as 106%. For the same molecule, the IC50 in experiment [4] amounted to 4 nM.

On to `COc1c(C(=O)c2ccc(C(=O)O)cc2)cc2c(c1C)N(C)CCC2(C)C`, for which the results for the Ki in experiment [1] and in experiment [2] were 4600 nM and > 30 µM, respectively. Also, in experiment [5], the Efficacy was 42%. The molecule also showed an EC50 in experiment [6] of 2850 nM.

Regarding `Cc1c(C(=O)c2ccc(C(=O)O)cc2)cc2c(c1[N+](=O)[O-])OCCC2(C)C`, the inhibition constant (Ki) in experiment [1] is 2200 nM; in experiment [2] it was > 30 µM. Moreover, in experiment [5], the Efficacy is 88%. This molecule also gave an EC50 in experiment [6] of 2950 nM.

For `CCOc1cc2c(cc1C(=O)c1ccc(C(=O)O)cc1)C(C)(C)CCC2(C)C`, the Ki in experiment [1] worked out at 110 nM; in experiment [2], 0.824 µM. Moreover, the Efficacy in experiment [5] worked out at 100%. The same molecule had an EC50 in experiment [6] of 263 nM.

As usually defined, the Ki is the equilibrium dissociation constant of an inhibitor or competing ligand from its target. Broadly, the IC50 is the concentration that inhibits the measured activity by half. Usually EC50 stands for the concentration giving half of the maximal effect.

(Values after ChEMBL document CHEMBL3714714, “Hepatocyte nuclear factor 4alpha modulator compounds” (2005).)
